Data published in ChEMBL document CHEMBL2331514, “Structure-based design and synthesis of novel pseudosaccharine derivatives as antiproliferative agents and kinase inhibitors” (Eur J Med Chem, 2013).

How the values were obtained:
HL-60(TB) = assay: Cytotoxicity against human HL-60(TB) cells assessed as growth inhibition at 10 uM after 48 hrs by SRB assay; type: functional; conditions: HL-60, 48 h, read-out: GI
[1] = Partition coefficient, log P of the compound; type: physicochemical; conditions: octanol/water
SF-295 = assay: Cytotoxicity against human SF295 cells assessed as growth inhibition at 10 uM after 48 hrs by SRB assay; type: functional; conditions: SF-295, 48 h, read-out: GI
ACHN = assay: Cytotoxicity against human ACHN cells assessed as growth inhibition at 10 uM after 48 hrs by SRB assay; type: functional; conditions: read-out: GI
DU-145 = assay: Cytotoxicity against human DU145 cells assessed as growth inhibition at 10 uM after 48 hrs by SRB assay; type: functional; conditions: DU-145, 48 h, read-out: GI
COLO 205 = assay: Cytotoxicity against human COLO205 cells assessed as growth inhibition at 10 uM after 48 hrs by SRB assay; type: functional; conditions: COLO 205, 48 h, read-out: GI
HOP-92 = assay: Cytotoxicity against human HOP92 cells assessed as growth inhibition at 10 uM after 48 hrs by SRB assay; type: functional; conditions: HOP-92, 48 h, read-out: GI
IGROV-1 = assay: Cytotoxicity against human IGROV1 cells assessed as growth inhibition at 10 uM after 48 hrs by SRB assay; type: functional; conditions: IGROV-1, 48 h, read-out: GI
CCRF-CEM = assay: Cytotoxicity against human CCRF-CEM cells assessed as growth inhibition at 10 uM after 48 hrs by SRB assay; type: functional; conditions: read-out: GI
SNB-19 = assay: Cytotoxicity against human SNB19 cells assessed as growth inhibition at 10 uM after 48 hrs by SRB assay; type: functional; conditions: SNB-19, 48 h, read-out: GI
BT-549 = assay: Cytotoxicity against human BT549 cells assessed as growth inhibition at 10 uM after 48 hrs by SRB assay; type: functional; conditions: BT-549, 48 h, read-out: GI
LOX IMVI = assay: Cytotoxicity against human LOXIMVI cells assessed as growth inhibition at 10 uM after 48 hrs by SRB assay; type: functional; conditions: read-out: GI
MCF7 = assay: Cytotoxicity against human MCF7 cells assessed as growth inhibition at 10 uM after 48 hrs by SRB assay; type: functional; conditions: MCF7, 48 h, read-out: GI
SN12C = assay: Cytotoxicity against human SN12C cells assessed as growth inhibition at 10 uM after 48 hrs by SRB assay; type: functional; conditions: read-out: GI
[2] = Cytotoxicity against human EKVX cells assessed as growth inhibition at 10 uM after 48 hrs by SRB assay; type: functional; conditions: read-out: GI
HCT-116 = assay: Cytotoxicity against human HCT116 cells assessed as growth inhibition at 10 uM after 48 hrs by SRB assay; type: functional; conditions: HCT-116, 48 h, read-out: GI
RXF 393 = assay: Cytotoxicity against human RXF393 cells assessed as growth inhibition at 10 uM after 48 hrs by SRB assay; type: functional; conditions: RXF 393, 48 h, read-out: GI
UACC-257 = assay: Cytotoxicity against human UACC257 cells assessed as growth inhibition at 10 uM after 48 hrs by SRB assay; type: functional; conditions: UACC-257, 48 h, read-out: GI
PC-3 = assay: Cytotoxicity against human PC3 cells assessed as growth inhibition at 10 uM after 48 hrs by SRB assay; type: functional; conditions: PC-3, 48 h, read-out: GI
NCI-H522 = assay: Cytotoxicity against human NCI-H522 cells assessed as growth inhibition at 10 uM after 48 hrs by SRB assay; type: functional; conditions: NCI-H522, 48 h, read-out: GI
M14 = assay: Cytotoxicity against human M14 cells assessed as growth inhibition at 10 uM after 48 hrs by SRB assay; type: functional; conditions: M14, 48 h, read-out: GI
MDA-MB-231 = assay: Cytotoxicity against human MDA-MB-231 cells assessed as growth inhibition at 10 uM after 48 hrs by SRB assay; type: functional; conditions: MDA-MB-231, 48 h, read-out: GI

Compound	inhibition of growth at 10 µM (HL-60(TB))	logP [1]	inhibition of growth at 10 µM (SF-295)	inhibition of growth at 10 µM (ACHN)	inhibition of growth at 10 µM (DU-145)	inhibition of growth at 10 µM (COLO 205)	inhibition of growth at 10 µM (HOP-92)	inhibition of growth at 10 µM (IGROV-1)	inhibition of growth at 10 µM (CCRF-CEM)	inhibition of growth at 10 µM (SNB-19)	inhibition of growth at 10 µM (BT-549)	inhibition of growth at 10 µM (LOX IMVI)	inhibition of growth at 10 µM (MCF7)	inhibition of growth at 10 µM (SN12C)	inhibition of growth at 10 µM [2]	inhibition of growth at 10 µM (HCT-116)	inhibition of growth at 10 µM (RXF 393)	inhibition of growth at 10 µM (UACC-257)	inhibition of growth at 10 µM (PC-3)	inhibition of growth at 10 µM (NCI-H522)	further results
COc1ccc(NC(=O)Nc2ccc(NC3=NS(=O)(=O)c4ccccc43)cc2)cc1	10%	2.99	18%	-3%	3%	-36%	-13%	-6%	14%	-6%	15%	1%	13%	5%	2%	5%	-2%	-19%	-5%	0%	inhibition of growth at 10 µM (M14): -8%; inhibition of growth at 10 µM (MDA-MB-231): -13%
O=C(Nc1ccc(NC2=NS(=O)(=O)c3ccccc32)cc1)Nc1cccc(Br)c1	1%	2.24	20%	3%	19%	-11%	36%	-10%	39%	19%	23%	23%	44%	21%	-4%	22%	35%	9%	16%	14%	inhibition of growth at 10 µM (M14): 22%; inhibition of growth at 10 µM (MDA-MB-231): 47%
O=C(Nc1ccccc1)Nc1ccc(OC2=NS(=O)(=O)c3ccccc32)cc1	23%	2.89	32%	12%	18%	-9%	2%	-12%	41%	-1%	12%	49%	17%	18%	-3%	10%	5%	-1%	11%	21%	inhibition of growth at 10 µM (M14): 42%; inhibition of growth at 10 µM (MDA-MB-231): 63%
Cc1ccc(NC2=NS(=O)(=O)c3ccc(NC(=O)CCC(=O)O)cc32)cc1	9%	1	1%	-5%	-11%	-11%	9%	-12%	2%	1%	-8%	1%	8%	6%	-4%	-6%	-4%	-25%	-2%	-8%	inhibition of growth at 10 µM (M14): -2%; inhibition of growth at 10 µM (MDA-MB-231): 6%
O=C(Nc1ccc(OC2=NS(=O)(=O)c3ccccc32)cc1)Nc1ccccc1Cl	25%	3.55	8%	21%	3%	-17%	-3%	0%	57%	-9%	22%	15%	23%	17%	-3%	1%	10%	-17%	9%	10%	inhibition of growth at 10 µM (M14): 2%; inhibition of growth at 10 µM (MDA-MB-231): 63%
O=C(Nc1ccccc1)Nc1ccc(NC2=NS(=O)(=O)c3ccccc32)cc1	5%	2.23	1%	-8%	-1%	-19%	1%	-14%	5%	-5%	3%	2%	10%	0%	0%	-6%	-6%	-1%	-3%	-6%	inhibition of growth at 10 µM (M14): -3%; inhibition of growth at 10 µM (MDA-MB-231): 11%
